According to the NIST ThermoML archive (doi:10.1016/j.jct.2018.12.008):
± gives the expanded uncertainty stated by the source.

How the values were obtained:
[1] = mn = molality of the nth substance listed, in mol/kg; conditions: 100 kPa, Liquid; for viscosity: Falling or rolling sphere viscometry; for electrical conductivity: Frequency=0.003 MHz, Alternating current cell with electrodes; for mass density: Vibrating tube method
[2] = 100 kPa, Liquid, Falling or rolling sphere viscometry

CCCCCCCC[n+]1ccc(C)cc1.[Br-] [1-octyl-4-methylpyridinium bromide] + O
[1]
Conditions | electrical conductivity, 288.15 K [S/m] | electrical conductivity, 298.15 K [S/m] | electrical conductivity, 308.15 K [S/m] | mass density, 288.15 K [kg/m3] | mass density, 298.15 K [kg/m3] | mass density, 308.15 K [kg/m3] | viscosity, 288.15 K [mPa·s] | viscosity, 298.15 K [mPa·s] | viscosity, 308.15 K [mPa·s]
m1 = 0.0011 | – | – | – | 999.141 ± 0.6 | 997.088 ± 0.6 | 994.07 ± 0.6 | 1.134 ± 0.022 | 0.8878 ± 0.021 | 0.7215 ± 0.021
m1 = 0.0018 | – | – | – | 999.186 ± 0.6 | 997.125 ± 0.6 | 994.101 ± 0.6 | 1.135 ± 0.022 | 0.8882 ± 0.021 | 0.7225 ± 0.021
m1 = 0.0021 | 0.0176 ± 0.0016 | 0.0219 ± 0.002 | 0.0265 ± 0.0024 | 999.196 ± 0.6 | 997.135 ± 0.64 | 994.115 ± 0.6 | 1.136 ± 0.022 | 0.891 ± 0.029 | 0.727 ± 0.021
m1 = 0.0036 | – | – | – | 999.266 ± 0.6 | 997.199 ± 0.6 | 994.174 ± 0.6 | 1.136 ± 0.022 | 0.8892 ± 0.021 | 0.7255 ± 0.021
m1 = 0.0043 | 0.0344 ± 0.0015 | 0.042 ± 0.0019 | 0.0517 ± 0.0023 | 999.3 ± 0.6 | 997.233 ± 0.6 | 994.42 ± 0.6 | 1.138 ± 0.022 | 0.892 ± 0.021 | 0.731 ± 0.021
m1 = 0.0065 | 0.051 ± 0.0016 | 0.0634 ± 0.0021 | 0.076 ± 0.0023 | 999.402 ± 0.6 | 997.329 ± 0.6 | 994.283 ± 0.6 | 1.139 ± 0.022 | 0.893 ± 0.021 | 0.734 ± 0.021

O [water] + CCCCCC[n+]1ccc(C)cc1.[Br-]
[1], m2 = 0
Conditions | electrical conductivity [S/m] | viscosity [mPa·s]
288.15 K | 0.000101 | 1.133 ± 0.022
298.15 K | 0.00015 | 0.89 ± 0.022
308.15 K | 0.000216 | 0.719 ± 0.021

O [water] + CCCC[n+]1ccc(C)cc1.[Br-]
[1], m2 = 0
Conditions | electrical conductivity [S/m] | viscosity [mPa·s]
288.15 K | 0.000101 | 1.133 ± 0.022
298.15 K | 0.00015 | 0.89 ± 0.021
308.15 K | 0.000216 | 0.719 ± 0.021

O [water] + CCCCCCCC[n+]1ccc(C)cc1.[Br-]
[1], m2 = 0
Conditions | electrical conductivity [S/m] | viscosity [mPa·s]
288.15 K | 0.000101 | 1.133 ± 0.022
298.15 K | 0.00015 | 0.89 ± 0.022
308.15 K | 0.000216 | 0.719 ± 0.021

CCCCCC[n+]1ccc(C)cc1.[Br-] [1-hexyl-4-methylpyridinium bromide] + O
[1]
Conditions | electrical conductivity, 288.15 K [S/m] | electrical conductivity, 298.15 K [S/m] | electrical conductivity, 308.15 K [S/m] | mass density, 288.15 K [kg/m3] | mass density, 298.15 K [kg/m3] | mass density, 308.15 K [kg/m3] | viscosity, 288.15 K [mPa·s] | viscosity, 298.15 K [mPa·s] | viscosity, 308.15 K [mPa·s]
m1 = 0.0011 | – | – | – | 999.106 ± 0.6 | 997.049 ± 0.6 | 994.045 ± 0.6 | 1.134 ± 0.022 | 0.8886 ± 0.021 | 0.721 ± 0.021
m1 = 0.0018 | – | – | – | 999.113 ± 0.6 | 997.053 ± 0.6 | 994.051 ± 0.6 | 1.135 ± 0.022 | 0.8893 ± 0.021 | 0.7216 ± 0.021
m1 = 0.0021 | 0.0177 ± 0.0016 | 0.022 ± 0.002 | 0.0266 ± 0.0024 | 999.119 ± 0.6 | 997.057 ± 0.64 | 994.054 ± 0.6 | 1.135 ± 0.022 | 0.889 ± 0.027 | 0.722 ± 0.021
m1 = 0.0036 | – | – | – | 999.129 ± 0.6 | 997.069 ± 0.6 | 994.067 ± 0.6 | 1.136 ± 0.022 | 0.8907 ± 0.021 | 0.7231 ± 0.021
m1 = 0.0043 | 0.0345 ± 0.0016 | 0.0431 ± 0.0019 | 0.0522 ± 0.0024 | 999.138 ± 0.6 | 997.073 ± 0.6 | 994.072 ± 0.6 | 1.136 ± 0.022 | 0.891 ± 0.021 | 0.724 ± 0.021
m1 = 0.0065 | 0.0512 ± 0.0016 | 0.0635 ± 0.002 | 0.077 ± 0.0024 | 999.156 ± 0.6 | 997.088 ± 0.6 | 994.09 ± 0.6 | 1.138 ± 0.022 | 0.893 ± 0.021 | 0.725 ± 0.021

O [water]
[2]
Conditions | viscosity [mPa·s]
288.15 K | 1.133 ± 0.022
298.15 K | 0.89 ± 0.021
308.15 K | 0.719 ± 0.021

CCCC[n+]1ccc(C)cc1.[Br-] [1-butyl-4-methylpyridinium bromide] + O
[1]
Conditions | electrical conductivity, 288.15 K [S/m] | electrical conductivity, 298.15 K [S/m] | electrical conductivity, 308.15 K [S/m] | mass density, 288.15 K [kg/m3] | mass density, 298.15 K [kg/m3] | mass density, 308.15 K [kg/m3] | viscosity, 288.15 K [mPa·s] | viscosity, 298.15 K [mPa·s] | viscosity, 308.15 K [mPa·s]
m1 = 0.0011 | – | – | – | 999.126 ± 0.6 | 997.066 ± 0.6 | 994.057 ± 0.6 | 1.135 ± 0.022 | 0.8895 ± 0.021 | 0.7239 ± 0.021
m1 = 0.0018 | – | – | – | 999.138 ± 0.6 | 997.081 ± 0.6 | 994.066 ± 0.6 | 1.137 ± 0.022 | 0.8911 ± 0.021 | 0.7267 ± 0.021
m1 = 0.0021 | 0.0186 ± 0.0017 | 0.023 ± 0.0021 | 0.0278 ± 0.0025 | 999.139 ± 0.6 | 997.093 ± 0.64 | 994.069 ± 0.6 | 1.137 ± 0.022 | 0.891 ± 0.028 | 0.727 ± 0.021
m1 = 0.0036 | – | – | – | 999.163 ± 0.6 | 997.131 ± 0.6 | 994.087 ± 0.6 | 1.14 ± 0.022 | 0.894 ± 0.021 | 0.7317 ± 0.021
m1 = 0.0043 | 0.0358 ± 0.0016 | 0.0444 ± 0.0021 | 0.054 ± 0.0025 | 999.177 ± 0.6 | 997.148 ± 0.6 | 994.099 ± 0.6 | 1.141 ± 0.022 | 0.895 ± 0.021 | 0.734 ± 0.021
m1 = 0.0065 | 0.0536 ± 0.0017 | 0.0671 ± 0.0022 | 0.0809 ± 0.0026 | 999.217 ± 0.6 | 997.205 ± 0.6 | 994.13 ± 0.6 | 1.146 ± 0.022 | 0.9 ± 0.021 | 0.742 ± 0.021
